From ChEMBL document CHEMBL5126503, “Renieramycin-type alkaloids from marine-derived organisms: Synthetic chemistry, biological activity and structural modification” (Eur J Med Chem, 2021)
Values after ≈ are worked out from the molar mass of the structure shown. Counter-ions that a name gives are not always drawn.

Assays:
HeLa [1] = test: Antiproliferative activity against human HeLa cells assessed as cell growth inhibition; assay type: functional, cell-based
MCF7 [2] = test: Antiproliferative activity against human MCF7 cells assessed as cell growth inhibition; assay type: functional, cell-based
A2780 = test: Antiproliferative activity against human A2780 cells assessed as cell growth inhibition; assay type: functional, cell-based
[3] = Antiproliferative activity against human HELF cells assessed as cell growth inhibition; assay type: toxicity, cell-based
KB [4] = test: Antiproliferative activity against human KB cells assessed as cell growth inhibition; assay type: functional, cell-based
Bel-7402 = test: Antiproliferative activity against human Bel-7402 cells assessed as cell growth inhibition; assay type: functional, cell-based
BGC-823 [5] = test: Antiproliferative activity against human BGC-823 cells assessed as cell growth inhibition; assay type: functional, cell-based
A549 [6] = test: Cytotoxicity against human A549 cells assessed as cell growth inhibition; assay type: functional, cell-based
HCT-8 [7] = test: Antiproliferative activity against human HCT-8 cells assessed as cell growth inhibition; assay type: functional, cell-based
KETR3 = test: Antiproliferative activity against human KETR3 cells assessed as cell growth inhibition; assay type: functional, cell-based
NCI-H460 = test: Cytotoxicity against human NCI-H460 cells assessed as cell growth inhibition; assay type: functional, cell-based
HCT-116 [8] = test: Cytotoxicity against human HCT-116 cells assessed as cell growth inhibition; assay type: functional, cell-based
QG-56 [9] = test: Cytotoxicity against human QG-56 cells assessed as cell growth inhibition; assay type: functional, cell-based
DLD-1 = test: Cytotoxicity against human DLD-1 cells assessed as cell growth inhibition; assay type: functional, cell-based
DU-145 [10] = test: Cytotoxicity against human DU-145 cells assessed as cell growth inhibition incubated for 4 days by Cell counting kit-8 assay; assay type: functional, cell-based; settings: DU-145, 96 h
HT-29 = test: Cytotoxicity against human HT-29 cells assessed as cell growth inhibition; assay type: functional, cell-based
P388 = test: Cytotoxicity against mouse P388 cells assessed as cell growth inhibition; assay type: functional, cell-based
Melanoma cell line = test: Cytotoxicity against human Melanoma cell line assessed as cell growth inhibition; assay type: functional, cell-based
HCT-116 [11] = test: Cytotoxicity against human HCT-116 cells assessed as cell growth inhibition incubated for 4 days by Cell counting kit-8 assay; assay type: functional, cell-based; settings: HCT-116, 96 h
[12] = Cytotoxicity against mouse NIH3T3 cells assessed as cell growth inhibition at 50 ng/ml; assay type: toxicity, cell-based
QG-56 [13] = test: Cytotoxicity against human QG-56 cells assessed as cell growth inhibition incubated for 4 days by Cell counting kit-8 assay; assay type: functional, cell-based; settings: QG-56, 96 h
A549 [14] = test: Antiproliferative activity against human A549 cells assessed as cell growth inhibition by MTT assay; assay type: functional, cell-based
BGC-823 [15] = test: Antiproliferative activity against human BGC-823 cells assessed as cell growth inhibition by MTT assay; assay type: functional, cell-based
KB [16] = test: Antiproliferative activity against human KB cells assessed as cell growth inhibition by MTT assay; assay type: functional, cell-based
HCT-116 [17] = test: Growth inhibition of human HCT-116 cells; assay type: functional
HCT-8 [18] = test: Antiproliferative activity against human HCT-8 cells assessed as cell growth inhibition by MTT assay; assay type: functional, cell-based
DU-145 [19] = test: Growth inhibition of human DU-145 cells; assay type: functional
HeLa [20] = test: Antiproliferative activity against human HeLa cells assessed as cell growth inhibition by MTT assay; assay type: functional, cell-based
QG-56 [21] = test: Growth inhibition of human QG-56 cells; assay type: functional
[22] = Cytotoxicity against human HEK293 cells assessed as cell growth inhibition; assay type: toxicity, cell-based
Neisseria gonorrhoeae [23] = test: Antimicrobial activity against Neisseria gonorrhoeae assessed as reduction in microbial growth by disk diffusion assay; assay type: functional
Bacillus subtilis = test: Antimicrobial activity against Bacillus subtilis assessed as reduction in microbial growth by disk diffusion assay; assay type: functional
Neisseria gonorrhoeae [24] = test: Antimicrobial activity against Penicillin resistant Neisseria gonorrhoeae assessed as reduction in microbial growth by disk diffusion assay; assay type: functional
Streptococcus pneumoniae [25] = test: Antimicrobial activity against Penicillin resistant Streptococcus pneumoniae assessed as reduction in microbial growth by disk diffusion assay; assay type: functional
Malme-3M = test: Growth inhibition of human Malme-3M cells; assay type: functional
Streptococcus pneumoniae [26] = test: Antimicrobial activity against Streptococcus pneumoniae assessed as reduction in microbial growth by disk diffusion assay; assay type: functional
HCT-116 [27] = test: Antiproliferative activity against human HCT-116 cells assessed as cell growth inhibition by MTT colorimetric assay; assay type: functional, cell-based
MDA-MB-435 = test: Antiproliferative activity against human MDA-MB-435 cells assessed as cell growth inhibition by MTT colorimetric assay; assay type: functional, cell-based
[28] = Cytotoxicity against human U373 MG cells assessed as cell growth inhibition incubated for 4 to 72 hrs by MTT assay; assay type: functional, cell-based, U-373MG ATCC
T47D = test: Cytotoxicity against human T47D cells assessed as cell growth inhibition; assay type: functional, cell-based
MCF7 [29] = test: Cytotoxicity against human MCF7 cells assessed as cell growth inhibition incubated for 72 hrs by MTT assay; assay type: functional, cell-based; settings: MCF7, 72 h
ASPC1 = test: Cytotoxicity against human ASPC1 cells assessed as cell growth inhibition; assay type: functional, cell-based

## COC1=C(C)C(=O)C2=C(C1=O)[C@@H]1[C@@H]3CC4=C(C(=O)C(OC)=C(C)C4=O)[C@H](COC(=O)C(=O)CNC(=O)c4ccccc4)N3[C@@H](C#N)[C@H](C2)N1C
HeLa [1]
  IC50: 2.12 nM
MCF7 [2]
  IC50: 2.12 nM
A2780
  IC50: 2.12 nM
[3]
  IC50: 2.12 nM
KB [4]
  IC50: 2.12 nM
Bel-7402
  IC50: 2.12 nM
BGC-823 [5]
  IC50: 2.12 nM
A549 [6]
  IC50: 2.12 nM
HCT-8 [7]
  IC50: 2.12 nM
KETR3
  IC50: 2.12 nM

## C/C=C(/C)C(=O)OC[C@H]1C2=C(C[C@H]3[C@H]4c5c(O)c(OC)c(C)c(O)c5[C@@H](O)[C@@H]([C@H](C#N)N13)N4C)C(=O)C(C)=C(OC)C2=O
NCI-H460
  IC50: 6.7 nM
HCT-116 [8]
  IC50: 5.6 nM
QG-56 [9]
  IC50: 11 nM
DLD-1
  IC50: 5.7 nM

## COC1=C(C)C(=O)C2=C(C1=O)[C@H]1CN(C)[C@@H](C#N)[C@H](C2)N1C
HCT-116 [8]
  IC50: 84 nM
QG-56 [9]
  IC50: 240 nM

## COC1=C(C)C(=O)C2=C(C1=O)[C@@H]1[C@@H]3CC4=C(C(=O)C(OC)=C(C)C4=O)[C@H](COC(C)=O)N3[C@@H](O)[C@H](C2)N1C
DU-145 [10]
  IC50: 0.49 nM
HT-29
  IC50: 0.0125 µg/mL (≈ 0.0237 µM)
P388
  IC50: 0.0125 µg/mL (≈ 0.0237 µM)
Melanoma cell line
  IC50: 0.0125 µg/mL (≈ 0.0237 µM)
HCT-116 [11]
  IC50: 0.57 nM
A549 [6]
  IC50: 0.0125 µg/mL
[12]
  inhibition at 50 ng/ml: 100%
QG-56 [13]
  IC50: 0.76 nM

## C/C=C(/C)C(=O)OC[C@H]1C2=C(C[C@H]3[C@H]4C5=C(C[C@@H](C(=O)N13)N4C)C(=O)C(C)=C(OC)C5=O)C(=O)C(C)=C(OC)C2=O [(-)-RENIERAMYCIN G]
A549 [14]
  IC50: 3500 nM
BGC-823 [15]
  IC50: 3500 nM
KB [16]
  IC50: 3500 nM
HCT-116 [17]
  GI50: 1100 nM
HCT-8 [18]
  IC50: 3500 nM
DU-145 [19]
  GI50: 1300 nM
HeLa [20]
  IC50: 3800 nM
QG-56 [21]
  GI50: 1300 nM

## CC(C)C[C@H](NC(=O)[C@H](Cc1ccccc1)NC(=O)c1cnccn1)B(O)O [BORTEZOMIB]
[22]
  IC50: 14000 nM

## C/C=C(/C)C(=O)OC[C@H]1C2=C(C=C3[C@H]4c5c(O)c(OC)c(C)c(O)c5C(=O)[C@@H](C(=O)N31)N4C)C(=O)C(C)=C(OC)C2=O [CRIBROSTATIN 5]
Neisseria gonorrhoeae [23]
  MIC: 6.25 µg
Bacillus subtilis
  MIC: 12.5 µg
Neisseria gonorrhoeae [24]
  MIC: 1.56 µg
Streptococcus pneumoniae [25]
  MIC: 50 µg
Malme-3M
  GI50: 390 nM
Streptococcus pneumoniae [26]
  MIC: 6.25 µg

## COC1=C(C)C(=O)C2=C(C1=O)[C@@H]1[C@@H]3CC4=C(C(=O)C(OC)=C(C)C4=O)[C@H](COC(C)=O)N3[C@@H](C#N)[C@H](C2)N1C [CYANOJORUMYCIN]
HCT-116 [8]
  IC50: < 0.38 nM
QG-56 [9]
  IC50: 0.68 nM

## COc1cccc2c1C(=O)c1c(O)c3c(c(O)c1C2=O)C[C@@](O)(C(=O)CO)C[C@@H]3O[C@H]1C[C@H](N)[C@H](O)[C@H](C)O1 [DOXORUBICIN HYDROCHLORIDE]
A549 [6]
  IC50: 310 nM

## CCC(=O)OC[C@H]1C2=C(C[C@H]3[C@H]4C5=C(C[C@@H]([C@H](C#N)N13)N4C)C(=O)C(C)=C(OC)C5=O)C(=O)C(C)=C(OC)C2=O [JORUNNAMYCIN C]
DU-145 [10]
  IC50: 0.32 nM
HCT-116 [27]
  IC50: 27.3 nM
HCT-116 [11]
  IC50: 1.5 nM
MDA-MB-435
  IC50: 16.3 nM
QG-56 [13]
  IC50: 2.8 nM

## C/C=C(/C)C(=O)OC[C@H]1C2=C(C[C@H]3[C@H]4C5=C(C[C@@H]([C@H](C#N)N13)N4C)C(=O)C(C)=C(OC)C5=O)C(=O)C(C)=C(OC)C2=O [RENIERAMYCIN M]
[28]
  IC50: 3.1 nM
T47D
  IC50: 0.84 nM
MCF7 [29]
  IC50: 6 nM
HCT-116 [27]
  IC50: 16.4 nM
MDA-MB-435
  IC50: 6.3 nM
DU-145 [19]
  GI50: 1700 nM
QG-56 [13]
  IC50: 11 nM
ASPC1
  IC50: 20 nM
